Reference: PubChem BioAssay (NCI)
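Tested at 5 concentrations; 48 h exposure; 96-well plates; endpoints linearly interpolated, else capped at highest concentration. At the GI50, growth is halved. The concentration for full growth arrest is given as TGI.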

Legend:
Assay in all cases: DTP human tumour cell line panel, 48 h
A498 renal = system: A498 renal
M14 melanoma = system: M14 melanoma
NCI-H226 lung = system: NCI-H226 lung
NCI-H522 lung = system: NCI-H522 lung
UACC-257 melanoma = system: UACC-257 melanoma
NCI-H460 lung = system: NCI-H460 lung
OVCAR-4 ovarian = system: OVCAR-4 ovarian
HL-60(TB) leukemia = system: HL-60(TB) leukemia
RPMI-8226 leukemia = system: RPMI-8226 leukemia
HT29 colon = system: HT29 colon
EKVX NSCLC = system: EKVX NSCLC
UO-31 renal = system: UO-31 renal
SF-268 CNS = system: SF-268 CNS
SK-MEL-2 melanoma = system: SK-MEL-2 melanoma
COLO 205 colon = system: COLO 205 colon
SF-295 CNS = system: SF-295 CNS
SK-MEL-28 melanoma = system: SK-MEL-28 melanoma
HCT-15 colon = system: HCT-15 colon
SNB-75 CNS = system: SNB-75 CNS
NCI/ADR-RES ovarian = system: NCI/ADR-RES ovarian
CAKI-1 renal = system: CAKI-1 renal
SR leukemia = system: SR leukemia
OVCAR-3 ovarian = system: OVCAR-3 ovarian
SK-OV-3 ovarian = system: SK-OV-3 ovarian
SW-620 colon = system: SW-620 colon
MCF7 breast = system: MCF7 breast
DU-145 prostate = system: DU-145 prostate
KM12 colon = system: KM12 colon
ACHN renal = system: ACHN renal
IGROV1 ovarian = system: IGROV1 ovarian
HCT-116 colon = system: HCT-116 colon
CCRF-CEM leukemia = system: CCRF-CEM leukemia
HOP-62 NSCLC = system: HOP-62 NSCLC
SK-MEL-5 melanoma = system: SK-MEL-5 melanoma
MDA-MB-435 = system: MDA-MB-435
UACC-62 melanoma = system: UACC-62 melanoma
MOLT-4 leukemia = system: MOLT-4 leukemia
OVCAR-5 ovarian = system: OVCAR-5 ovarian
HS 578T breast = system: HS 578T breast
OVCAR-8 ovarian = system: OVCAR-8 ovarian
SN12C renal = system: SN12C renal
HCC-2998 colon = system: HCC-2998 colon
BT-549 breast = system: BT-549 breast
NCI-H23 lung = system: NCI-H23 lung
SF-539 CNS = system: SF-539 CNS
TK-10 renal = system: TK-10 renal
U251 CNS = system: U251 CNS
A549 NSCLC = system: A549 NSCLC
LOX IMVI melanoma = system: LOX IMVI melanoma
786-0 renal = system: 786-0 renal
K-562 leukemia = system: K-562 leukemia
PC-3 prostate = system: PC-3 prostate
HOP-92 NSCLC = system: HOP-92 NSCLC
MDA-MB-231 breast = system: MDA-MB-231 breast
MALME-3M melanoma = system: MALME-3M melanoma
SNB-19 CNS = system: SNB-19 CNS

Which GI50 (A498 renal) does the source give for `CCN1C(=O)N(CC)C2SC(N/N=C/c3ccc(F)cc3)=NC21` (centres undefined) here?
The GI50 was 295 nM.

And the TGI (A498 renal)?
Its TGI is 860 nM.

What about the GI50 (M14 melanoma) of the same compound?
Its GI50 is 296 nM.

And the TGI (M14 melanoma)?
The TGI was 14.4 µM.

What about the GI50 (NCI-H226 lung) of the same compound?
Its GI50 is 942 nM.

What about the TGI (NCI-H226 lung) of the same compound?
Its TGI is > 100 µM.

What about the GI50 (NCI-H522 lung) of the same compound?
The GI50 was 250 nM.

And the TGI (NCI-H522 lung)?
The TGI was 762 nM.

What about the GI50 (UACC-257 melanoma) of the same compound?
Its GI50 is 1260 nM.

What about the TGI (UACC-257 melanoma) of the same compound?
Its TGI is > 100 µM.

What about the GI50 (NCI-H460 lung) of the same compound?
The GI50 was 362 nM.

And the GI50 (OVCAR-4 ovarian)?
The GI50 was 22.4 µM.

And the TGI (OVCAR-4 ovarian)?
Its TGI is > 100 µM.

And the GI50 (HL-60(TB) leukemia)?
The GI50 was 268 nM.

And the TGI (HL-60(TB) leukemia)?
The TGI was 927 nM.

And the GI50 (RPMI-8226 leukemia)?
The GI50 was 373 nM.

And the TGI (RPMI-8226 leukemia)?
The TGI was > 100 µM.

What about the GI50 (HT29 colon) of the same compound?
The GI50 was 354 nM.

What about the TGI (HT29 colon) of the same compound?
The TGI was 4.46 µM.

What about the GI50 (EKVX NSCLC) of the same compound?
The GI50 was 695 nM.

What about the TGI (EKVX NSCLC) of the same compound?
Its TGI is > 100 µM.

What about the GI50 (UO-31 renal) of the same compound?
Its GI50 is 631 nM.

And the TGI (UO-31 renal)?
Its TGI is > 100 µM.

What about the GI50 (SF-268 CNS) of the same compound?
The GI50 was 2620 nM.

And the TGI (SF-268 CNS)?
The TGI was > 100 µM.

What about the GI50 (SK-MEL-2 melanoma) of the same compound?
Its GI50 is 507 nM.

What about the TGI (SK-MEL-2 melanoma) of the same compound?
Its TGI is > 100 µM.

What about the GI50 (COLO 205 colon) of the same compound?
The GI50 was 308 nM.

What about the TGI (COLO 205 colon) of the same compound?
Its TGI is 1100 nM.

What about the GI50 (SF-295 CNS) of the same compound?
The GI50 was 348 nM.

What about the TGI (SF-295 CNS) of the same compound?
The TGI was > 100 µM.

What about the GI50 (SK-MEL-28 melanoma) of the same compound?
Its GI50 is > 30 µM.

And the TGI (SK-MEL-28 melanoma)?
Its TGI is > 100 µM.

And the GI50 (HCT-15 colon)?
The GI50 was 429 nM.

What about the TGI (HCT-15 colon) of the same compound?
The TGI was > 100 µM.

And the GI50 (SNB-75 CNS)?
The GI50 was 252 nM.

What about the GI50 (NCI/ADR-RES ovarian) of the same compound?
The GI50 was 428 nM.

What about the TGI (NCI/ADR-RES ovarian) of the same compound?
The TGI was > 100 µM.

And the GI50 (CAKI-1 renal)?
The GI50 was 435 nM.

What about the TGI (CAKI-1 renal) of the same compound?
The TGI was > 100 µM.

What about the GI50 (SR leukemia) of the same compound?
Its GI50 is 221 nM.

What about the TGI (SR leukemia) of the same compound?
The TGI was > 100 µM.

And the GI50 (OVCAR-3 ovarian)?
The GI50 was 370 nM.

What about the TGI (OVCAR-3 ovarian) of the same compound?
The TGI was 2040 nM.

And the GI50 (SK-OV-3 ovarian)?
The GI50 was 662 nM.

What about the TGI (SK-OV-3 ovarian) of the same compound?
The TGI was > 100 µM.

What about the GI50 (SW-620 colon) of the same compound?
The GI50 was 374 nM.

What about the TGI (SW-620 colon) of the same compound?
Its TGI is > 100 µM.

And the GI50 (MCF7 breast)?
Its GI50 is 369 nM.

What about the TGI (MCF7 breast) of the same compound?
The TGI was > 100 µM.

What about the GI50 (DU-145 prostate) of the same compound?
Its GI50 is 498 nM.

And the TGI (DU-145 prostate)?
Its TGI is > 100 µM.

What about the GI50 (KM12 colon) of the same compound?
The GI50 was 415 nM.

And the TGI (KM12 colon)?
Its TGI is > 62.2 µM.

And the GI50 (ACHN renal)?
Its GI50 is 728 nM.

What about the TGI (ACHN renal) of the same compound?
Its TGI is > 100 µM.

What about the GI50 (IGROV1 ovarian) of the same compound?
The GI50 was 765 nM.

And the TGI (IGROV1 ovarian)?
The TGI was > 100 µM.

What about the GI50 (HCT-116 colon) of the same compound?
Its GI50 is 404 nM.

What about the TGI (HCT-116 colon) of the same compound?
The TGI was > 33.9 µM.

And the GI50 (CCRF-CEM leukemia)?
The GI50 was 413 nM.

And the TGI (CCRF-CEM leukemia)?
Its TGI is > 100 µM.

What about the GI50 (HOP-62 NSCLC) of the same compound?
The GI50 was 556 nM.

And the TGI (HOP-62 NSCLC)?
The TGI was > 100 µM.

And the GI50 (SK-MEL-5 melanoma)?
The GI50 was 601 nM.

And the TGI (SK-MEL-5 melanoma)?
The TGI was > 42.2 µM.

And the GI50 (MDA-MB-435)?
Its GI50 is 174 nM.

And the TGI (MDA-MB-435)?
Its TGI is 408 nM.

What about the GI50 (UACC-62 melanoma) of the same compound?
Its GI50 is 437 nM.

What about the TGI (UACC-62 melanoma) of the same compound?
Its TGI is > 100 µM.

What about the GI50 (MOLT-4 leukemia) of the same compound?
The GI50 was 479 nM.

What about the TGI (MOLT-4 leukemia) of the same compound?
The TGI was > 100 µM.

What about the GI50 (OVCAR-5 ovarian) of the same compound?
Its GI50 is 890 nM.

And the TGI (OVCAR-5 ovarian)?
The TGI was > 100 µM.

What about the GI50 (HS 578T breast) of the same compound?
The GI50 was 363 nM.

What about the GI50 (OVCAR-8 ovarian) of the same compound?
Its GI50 is 495 nM.

And the TGI (OVCAR-8 ovarian)?
The TGI was > 24 µM.

What about the GI50 (SN12C renal) of the same compound?
The GI50 was 617 nM.

And the TGI (SN12C renal)?
The TGI was > 100 µM.

What about the GI50 (HCC-2998 colon) of the same compound?
Its GI50 is 823 nM.

What about the TGI (HCC-2998 colon) of the same compound?
Its TGI is > 100 µM.

And the GI50 (BT-549 breast)?
The GI50 was 496 nM.

And the TGI (BT-549 breast)?
The TGI was 2870 nM.

What about the GI50 (NCI-H23 lung) of the same compound?
Its GI50 is 539 nM.

And the TGI (NCI-H23 lung)?
Its TGI is > 100 µM.

And the GI50 (SF-539 CNS)?
The GI50 was 321 nM.

What about the TGI (SF-539 CNS) of the same compound?
Its TGI is 1430 nM.

What about the GI50 (TK-10 renal) of the same compound?
The GI50 was 5.2 µM.

And the TGI (TK-10 renal)?
Its TGI is > 100 µM.

And the GI50 (U251 CNS)?
Its GI50 is 406 nM.

What about the TGI (U251 CNS) of the same compound?
Its TGI is > 74.3 µM.

And the GI50 (A549 NSCLC)?
Its GI50 is 611 nM.

And the TGI (A549 NSCLC)?
Its TGI is > 100 µM.

And the GI50 (LOX IMVI melanoma)?
Its GI50 is 596 nM.

And the TGI (LOX IMVI melanoma)?
The TGI was > 100 µM.

What about the GI50 (786-0 renal) of the same compound?
The GI50 was 628 nM.

And the TGI (786-0 renal)?
The TGI was 30.1 µM.

And the GI50 (K-562 leukemia)?
The GI50 was 361 nM.

And the TGI (K-562 leukemia)?
The TGI was > 100 µM.

And the GI50 (PC-3 prostate)?
The GI50 was 436 nM.

And the TGI (PC-3 prostate)?
Its TGI is > 52.3 µM.

What about the GI50 (HOP-92 NSCLC) of the same compound?
Its GI50 is 1160 nM.

What about the TGI (HOP-92 NSCLC) of the same compound?
Its TGI is > 23.3 µM.

And the GI50 (MDA-MB-231 breast)?
The GI50 was 955 nM.

And the TGI (MDA-MB-231 breast)?
The TGI was > 100 µM.

And the GI50 (MALME-3M melanoma)?
The GI50 was 660 nM.

What about the TGI (MALME-3M melanoma) of the same compound?
Its TGI is > 100 µM.

And the GI50 (SNB-19 CNS)?
Its GI50 is 504 nM.

And the TGI (SNB-19 CNS)?
The TGI was > 100 µM.
